# Assay results from US5733904A, “Method for prevention and treatment of viral infectious diseases for viral suppression” (priority 1996, dated 1998).
# Entries after “also recorded” stand apart in the source; their conditions may differ.
# Key:
# [1] = tested on: HIV-1 p24 gag protein, HIV-1 infected MOLT-4 cells; assay: Suppressive action of HIV production (p24 gag protein in culture supernatant, ELISA); type: cell-based; details: FIG. 4; 5 days; hydrochloride
# Protocol: Suppressive action of HIV production (extracellular release from cells). Cells obtained by culturing MOLT-4 (culture condition: 37° C., 5% CO2 /95% air. RPMI medium (GIBCO Corp.) containing 10% FBS) were adjusted to a preferable number of cells (1×10^5 cells/50 μl). The cell suspension, 50 μl, (infection with MOLT-4 and HIV-1: M.O.I.=1.0) were put in a 96 hole microplate and cultured for 1 hour to infect the cells. A solution of the compounds shown below, 100 μl, was added in each well and cultured for 5 days. The cultured solution was transferred into a plastic tube (Eppendorf Corp.) and centrifuged. The amount of p24 gag protein in the cultured supernatant medium wa assayed by using an Abbott kit (ELISA: Dinabot Co.). FAS, H-7 and KN-62 were used as the compound, and a solution without the compound was used as a control.
# [2] = tested on: myosin light chain kinase; details: Cranial Nerve, 45 (9), 819-824, 1993; cited from earlier work
# [3] = tested on: rabbit plasma; assay: Blood coagulation time (APTT, PT); parameters: species or system rabbit (male, Japanese white); details: for PT / APTT: N=4, mean ± S.E.; for PT: control 7.3 ± 0.4; for APTT: control 16.9 ± 0.8
# Protocol: a) Blood coagulation time:
# Rabbits (male, Japanese white, body weight 2-3 kg, Oriental Yeast Co.) were used. […] After adding the test compound to the resultant plasma, activated partial thromboplastin time (APTT) and prothrombin time (PT) were measured by using a coagulometer (Coagtec, Coagtec TE600, EMRA; KC-10A, Baxter).
# [4] = tested on: HIV-1 (LAV-1) persistently infected MOLT-4 cells with non-infected MOLT-4 cells; assay: Inhibitory activity of HIV syncytia formation: HIV-1 chronic-phase infection; type: cell-based
# Protocol: b) Activity of the medicament on HIV-1 chronic-phase infection:
# Cells obtained by culturing MOLT-4 (culture condition: 37° C., 5% CO2 /95% air, RPMI medium (GIBCO Corp.) containing 10% FBS) were adjusted to a preferable number of cells (1×10^5 cells/50 μl). HIV-1 (LAV-1) preparation, 50 μl was added to the cell suspension, 50 μl and subjected to a mixing culture (infectious condition of HIV-1 to MOLT-4: M.O.I.=1). The infected cell mixture was cultured by exchanging a fresh culture medium every 3 days at a volume rate of 2:5. The culture was continued for more than 1 month to prepare persistent infected cells. The concentration of the persistent infected cells was adjusted to a preferable number of cells (1×10^5 cells/50 μl ) (the persistent infected cell preparation).
# Cell preparation without infection was prepared by culturing MOLT-4 (culture condition: 37° C., 5% CO2 /95% air, RPMI medium (GIBCO Corp.) containing 10% FBS) and adjusting the concentration to a preferable number of cells (1×10^5 cells/50 μl).
# The persistent infected cell preparation, 50 μl, was placed in the wells of a 96 hole microplate and the non-infected cell preparation, 50 μl, was added therein and cultured for 48 hours. Numbers of the formed syncytia were counted microscopically.
# Each compound solution tested was added, 100 μl, at the time of mixing the persistent infected cell preparation with the non-infected cell preparation, to provide the final concentrations shown in FIG. 2 (medicament added test group).
# The no-medicament-added group (control group) was prepared by replacing the compound solution, 100 μl.
# [5] = tested on: HIV-1; assay: Comparison of suppressive activity of HIV proliferation with FAS and other anti-HIV drugs (syncytium formation); type: cell-based
# Protocol: Comparison of suppressive activity of HIV proliferation with FAS and other anti-HIV drugs.
# Experiments were conducted by the same method as in Example 3.
# The medicaments used in this experiment were compounds of the present invention (FAS, and a compound of formula [I] where R^1 is hydroxy as in the above-mentioned Japanese Patent Unexamined Publication No. 61-152658), ddI (Sigma Corp.) and AZT (Sigma Corp.) which are used as medicaments for the treatment of AIDS, and dextran sulfate (Sigma Corp.).
# [6] = tested on: C kinase; details: Cranial Nerve, 45 (9), 819-824, 1993; cited from earlier work
# [7] = Acute toxicity in rats; parameters: species or system rat (Jcl: Wistar, 5 weeks); details: rat, in vivo
# Protocol: Acute toxicity of the compounds of the present invention were conducted on rats and mice, and low toxicity was confirmed.
# [8] = tested on: parainfluenza virus; assay: Inhibitory action for plaque formation of parainfluenza virus; type: cell-based; details: mean of two, control 51.5
# Protocol: Experiments were performed according to a method described in Antiviral Chemistry and Chemotherapy, 5 (6), 366-371, 1994 and Experimental Virology, Ed. by NIH Japan alumni assoc., Maruzen Publ. 1982, p. 65-78 or p. 331-340.
# Vero cells cultured in the medium (Dulbecco's modified MEM added with 10% FBS) were detached by trypsin (Sigma Corp.). The detached cells were suspended by 2×10^5 cells/ml in the same medium, and placed in the wells of a 48 hole plate. The plate was incubated at 37° C. under 5% CO2 for about one day to complete a full-sheet of the cells in all wells. After incubation, cultured supernatant was removed. A solution (50 μl) containing the compound diluted with 4-fold stepwise dilution by virus culture medium (MM: Dulbecco's modified MEM added with 2% FBS), was added thereto.
# A viral solution, 50 μl, in which the number of virus (parainfluenza virus or Herpes simplex virus type I) was adjusted to about 50 pfu (plaque forming unit)/50 μl by MM, was added to each well. MM 400 μl containing 1% methylcellulose was added in each well to provide a compound-added test group. A control group was prepared by adding the viral culture medium without adding the test compound.
# The groups were incubated at 37° C. under 5% CO2 for three days to form plaques and the number of plaques in each well was counted.
# The test compounds were FAS, and the compound of formula [I] where R^1 is hydroxy. The final concentration of the compound in the solution was set to 100, 25, 6.3 and 1.6 μg/ml, respectively. Each test group included 2 wells and a mean of the plaque numbers was obtained.
smiles,measurement,setting,value
"Cl.O=S(=O)(c1cccc2cnccc12)N1CCCNCC1 [FAS, hexahydro-1-(5-isoquinoline-sulfonyl)-1H-1,4-diazepine hydrochloride]",p24 gag protein in the cultured supernatant medium / HIV-1 generation,[1],decreased p24 gag protein in the cultured supernatant medium and suppressed HIV-1 generation; also recorded: apparently stronger than that of H-7 (-.increment.-) and KN-62 (-.quadrature.-)
same,myosin light chain kinase inhibition,[2],myosin light chain kinase inhibition
same,"effect on blood coagulation time (APTT, PT)",[3],no effect on blood coagulation time
same,PT,[3]; 10 μM,7.1 ± 0.6 s
same,APTT,[3]; 10 μM,16.4 ± 0.8 s
same,PT,[3]; 30 μM,7.1 ± 0.5 s
same,APTT,[3]; 30 μM,16.0 ± 0.8 s
same,PT,[3]; 100 μM,7.6 ± 0.9 s
same,APTT,[3]; 100 μM,16.3 ± 0.8 s
same,viral transmission from persistent infected cells to non-infected cells,[4],suppressed
same,inhibitory activity for syncytium formation,"[4]; FIG. 2, 48 hours",extremely high suppressive action on syncytium formation
same,minimal effective concentration,"[4]; Human immunodeficiency virus 1, MOLT-4, 48 hours, persistent infected cells mixed with non-infected cells, read-out: concentration showing inhibitory activity for syncytium formation",≥ 3.75 µM
same,inhibitory activity of syncytium formation of HIV-1,[5],"higher sensitivity than dextran sulfate, ddI and AZT"
same,IC50,"[5]; Human immunodeficiency virus 1, FIG. 5, approximate, read-out: 50% inhibitory concentration, syncytium formation",~0.8 µM
same,C kinase inhibition,[6],C kinase inhibition
same,LD50,"[7]; iv, i. v., female",63.9 mg/kg
same,LD50,"[7]; iv, i. v., male",59.9 mg/kg
same,LD50,"[7]; po, p. o., female",348 mg/kg
same,LD50,"[7]; po, p. o., male",335 mg/kg
same,LD50,"[7]; sc, s. c., female",128 mg/kg
same,LD50,"[7]; sc, s. c., male",123 mg/kg
same,Plaque No.,[8]; 6.3 μg/ml,50.5
same,Plaque No.,[8]; 25 μg/ml,36
same,Plaque No.,[8]; 100 μg/ml,3.5
